US9174933B2

Test: Dynamic Vapor Sorption/Desorption (DVS)
Format: physicochemical
Conditions: 5% to 95% relative humidity at 10% RH intervals, nitrogen purge
Method: Moisture sorption/desorption data were collected on a VTI SGA-100 Vapor Sorption Analyzer. Sorption and desorption data were collected over a range of 5% to 95% relative humidity (RH) at 10% RH intervals under a nitrogen purge. Samples were not dried prior to analysis. Equilibrium criteria used for analysis were less than 0.0100% weight change in 5 minutes, with a maximum equilibration time of 3 hours if the weight criterion was not met. Data were not corrected for the initial moisture content of the samples. Sodium chloride and polyvinypyrrolidine were used as calibration standards.

In the case of `COc1cc(F)c(F)c(Nc2ccc(I)cc2F)c1NS(=O)(=O)C1(C[C@H](O)CO)CC1` [Form A], the “weight change during moisture sorption/desorption” value is reported as “negligible weight change”.
